Patent US20190381337A1, “BORON NEUTRON CAPTURE THERAPY SYSTEM” (NEUBORON MEDTECH LTD., priority 2016, published 2019)

How the values were obtained:
U343mga cells [1] = experiment: Cell uptake of boron compounds (Example 2); type: cell-based, human; settings: for boron content expressed as a function of the total cellular protein, Trial 1 / boron content expressed as a function of the total cellular protein, Trial 2: 6 hours incubation, 5×10^−4 mol/L boron; for boron content expressed as a function of the total cellular protein, Trial 1: 7.2 μg boron/mL media; for boron content expressed as a function of the total cellular protein, Trial 2: 7.7 μg boron/mL media
Method: (§1) An in vitro test of the Phe-BF3 of the Example 1 uses four different human-derived tumor cell lines U343mga, human liver cancer cell line Hep3B, human breast cancer cell line MCF7 and human Sarcoma cell line 4SS. Cells were plated on uncoated tissue culture dishes and incubated at 37° C. in an incubator with humidified air equilibrated with 5% CO2 (the medium was supplemented with 10% FCS and PEST (Penicillin 100 IU/mL and streptomycin […])). For cell passage, cells were trypsinized with trypsin-EDTA (phosphate buffered saline (PBS) with 0.25% trypsin and 0.02% EDTA, no calcium and magnesium).
U343mga cells were plated on Petri dishes at a cell density of 75% and incubated for 6 hours with 1,4-dihydroxyborylphenylalanine (BPA) or Phe-BF3 dissolved in tissue culture medium. Both boron-containing compounds were added at an equimolar concentration relative to the boron content (5×10^−4 mol/L boron) and dissolved in tissue culture medium. Incubation was terminated by removing the boron containing tissue culture medium and adding cold phosphate buffered saline solution (PBS buffer) in order to wash away excess medium from the cells. Cells were immediately harvested by scooping off from the petri dishes using rubber policeman, and collected in cold PBS and pelleted by centrifugation.
Total protein analysis was performed on cell samples according to the Bradford standard procedure. The precipitated cells were subjected to boron analysis by DC-plasmon atomic emission spectroscopy (DCP-AES). The sample (50-130 mg) was digested with sulfuric acid/nitric acid (1/1) at 60° C. Triton X-100 and water were added to give concentrations of 50 mg tissue/mL, 15% total acid v/v, and 5% Triton X-100 v/v. The boron concentration is based on known control sample.

U343mga cells [2] = experiment: Intracellular retention of boron (Example 4); type: cell-based, human; settings: for Boron content in U343mga cells, 0 h after removal of the boron-containing medium / Boron content in U343mga cells, 2 h after removal of the boron-containing medium / Boron content in U343mga cells, 7 h after removal of the boron-containing medium: 18 hours incubation, 5×10^−4 mol/L boron
Method: U343mga cells were plated on Petri dishes at a cell density of 75% and incubated for 18 hours with 1,4-dihydroxyboron-phenylalanine (BPA) or Phe-BF3 in tissue culture medium. Both boron compounds were added to the tissue culture medium at equimolar concentrations relative to the boron content (5×10^−4 mol/L boron). The incubation was terminated by replacing the boron-containing medium with a boron-free medium. Cell samples were taken at time points 0, 2 and 7 hours, respectively, where the 0 time point represented the time point when the incubation with the boron compound reached just 18 hours.
The cells were washed with cold PBS and immediately harvested by scooping off from the petri dish using rubber policeman, and collected in cold PBS and pelleted by centrifugation. The cell pellets were analyzed for total protein and boron content as described above. With intracellular uptake, the compound of formula (I) retained in the tumor cells was 50% of the total uptake at 7 h after the complete consumption of Ia in the medium.

[3] = tested on: mouse fibroblast L-929 cells; experiment: Cytotoxicity study, MTT colorimetry (Example 5); type: cell-based; settings: for Relative cell proliferation RGR: 5 mmol/L, MTT
Method: The cell culture fluid containing the peptide bovine serum was incubated at 37 C for 24 hours. The passage cultured mouse fibroblast L-929 cells were used to prepare a cell suspension of 1×10^5 cells/mL, and the cell suspension was seeded on a 96-well cell culture plate (100 μl/well) and cultured in a carbon dioxide incubator at 37° C. for 24 hours. After the cells adhere to the wall, the supernatant was removed, the control solution (in absence of compound Ia) was added, and the culture solution of the test group (Phe-BF3 concentration of 5 mmol/L) was exchanged, and the culture was continued in the carbon dioxide incubator at 37° C. After 2 days, MTT solution was added to continue culture for 4 hours. The original solution was aspirated and DMSO was added and shaken for 10 min. The absorbance value was measured with an enzyme-linked immunometric instrument at a wavelength of 630 nm, and the relative proliferation rate (RGR) of the cells was calculated according to the absorbance according to the formula.

[4] = tested on: human Sarcoma cell line 4SS; experiment: Uptake of Phe-BF3 by different tumor cells (Example 3); type: cell-based; settings: 6 hours
Method: as §1
(§2) Four human-derived, different tumor cell lines: U343mga, Hep3B, MCF7, and 4SS were plated on Petri dishes at 40-50% (low) and 90-100% (high) cell densities, and incubated with Phe-BF3 in tissue culture as described above for 6 hours. Incubation was terminated by removing the boron-containing media and adding cold PBS buffer to wash excess media from the cells. Cells were immediately harvested by scooping off from the petri dishes using rubber policeman, and collected in cold PBS and pelleted by centrifugation. Total protein analysis was performed on cell samples according to the Bradford standard procedure (as described above).

[5] = tested on: human breast cancer cell line MCF7; experiment: as above; type: cell-based; settings: 6 hours
Method: as §1, §2

[6] = tested on: human liver cancer cell line Hep3B; experiment: as above; type: cell-based; settings: 6 hours
Method: as §1, §2

U343mga = experiment: as above; type: cell-based, human
Method: as §1, §2

SMILES: N[C@@H](CC1(BO)C=CC(BO)=CC1)C(=O)O (stereo partly drawn) [BPA, 1,4-dihydroxyborylphenylalanine, reference compound]
- boron content expressed as a function of the total cellular protein, Trial 1 (U343mga cells [1]): 62
- boron content expressed as a function of the total cellular protein, Trial 2 (U343mga cells [1]): 39
- Boron content in U343mga cells, 0 h after removal of the boron-containing medium (U343mga cells [2]): 0.072 μg boron/g cell pellet
- Boron content in U343mga cells, 2 h after removal of the boron-containing medium (U343mga cells [2]): 0 μg boron/g cell pellet
- Boron content in U343mga cells, 7 h after removal of the boron-containing medium (U343mga cells [2]): 0 μg boron/g cell pellet

SMILES: [NH3+]C(Cc1ccccc1)[B-](F)(F)F (stereo not drawn) [Phe-BF3]
- Relative cell proliferation RGR ([3]; 2 days): 123%
- Relative cell proliferation RGR ([3]; 7 days): 102%
- cytotoxicity assessment ([3]; graded by RGR (Table 5)): no signs of toxicity
- boron content as a function of the total cellular protein, low cell density ([4]; 40-50% cell density): 255 μg boron/g cell protein
- boron content as a function of the total cellular protein, high cell density ([4]; 90-100% cell density): 343 μg boron/g cell protein
- boron content as a function of the total cellular protein, low cell density ([5]; MCF7, 40-50% cell density): 101 μg boron/g cell protein
- boron content as a function of the total cellular protein, high cell density ([5]; MCF7, 90-100% cell density): 167 μg boron/g cell protein
- boron content as a function of the total cellular protein, low cell density ([6]; 40-50% cell density): 149 μg boron/g cell protein
- boron content as a function of the total cellular protein, high cell density ([6]; 90-100% cell density): 207 μg boron/g cell protein
- boron uptake compared with BPA (U343mga cells [1]; 6 hours): better than boron phenylalanine (BPA) in boron uptake
- boron content expressed as a function of the total cellular protein, Trial 1 (U343mga cells [1]): 549
- boron content expressed as a function of the total cellular protein, Trial 2 (U343mga cells [1]): 421
- boron content as a function of the total cellular protein, low cell density (U343mga; U343mga, 40-50% cell density, 6 hours): 102 μg boron/g cell protein
- boron content as a function of the total cellular protein, high cell density (U343mga; U343mga, 90-100% cell density, 6 hours): 178 μg boron/g cell protein
- efficiency as boron carrier (U343mga; all four human tumor cell lines at low and high cell densities): highly efficient boron carrier
- Boron content in U343mga cells, 0 h after removal of the boron-containing medium (U343mga cells [2]): 0.83 μg boron/g cell pellet
- Boron content in U343mga cells, 2 h after removal of the boron-containing medium (U343mga cells [2]): 0.56 μg boron/g cell pellet
- Boron content in U343mga cells, 7 h after removal of the boron-containing medium (U343mga cells [2]): 0.41 μg boron/g cell pellet
- tumor cell uptake, accumulation, and retention compared with BPA (U343mga cells [2]; summary of Examples 2-4, in vitro): superior to BPA in tumor cell uptake, accumulation, and retention
